The text below walks through data of article PMC10894229, “Novel antimicrobial peptides against Cutibacterium acnes designed by deep learning” (Scientific Reports, 2024).

Read-outs that look alike come from different tables or passages of the source.

The experiment relates to C. acnes (BNCC 336649). As to conditions: for Concentration with antimicrobial activity >50%: C. acnes; for Concentration with antimicrobial activity >50% / Category of in vitro test antimicrobial activity against C. acnes: supplementary Table 5; for Antimicrobial activity > 50% against C. acnes: broth microdilution, 48 h, OD 630 nm. As for the experimental part: The strain of C. acnes (BNCC 336649) was cultured in Wilkins-Chalgren Anaerobe Broth (QingDao RiShui Bio-technologies, 11071) at 37 °C under an anaerobic atmosphere performed by a Labiophy HL-B automatic hypoxic workstation (Dalian, Liaoning Province, Labiophy HL-B), inflated with a gas mix of 15% carbon dioxide, 83% nitrogen, and 2% hydrogen.
Logarithmic phase growth bacteria were used for antimicrobial testing.
To determine the MIC values, the broth microdilution method was used. […] Briefly, peptide samples were prepared as a stock solution in water and then diluted. 180 μL of the bacterial suspension (10^7 CFU/mL) and 20 μL of the tested sample were added together into 96-Well Deep Well Plates and incubated 24 h for E. coli and S. aureus or 48 h for C. acnes and C. albicans. For each test, two columns of the plate were kept for sterility control (broth only) and growth control (broth with bacterial inoculums, no antibiotics). The optical density of cultures was measured at 630 nm by a microplate reader (SYNERGY-H1, BioTek, USA) to estimate bacterial growth. All experiments were conducted in triplicate. We used ciprofloxacin (CPFX) as the antibiotic control for antimicrobial testing.
In general terms: Dilution methods test growth across graded concentrations, often in twofold steps.

As to AIHKLAHHIAKLAKK [AMP-35], the “Concentration with antimicrobial activity >50%” value is listed as “no” and the “Category of in vitro test antimicrobial activity against C. acnes” value (“Category” for short) is given as “No AMP”. In addition, for the setting “at 25 µg/mL”, the “Antimicrobial activity > 50% against C. acnes” value is “No (A peptide was deemed to have antimicrobial activity if C. acnes growth was inhibited by more than 50% at a given concentration)”. Besides, the “Antimicrobial activity > 50% against C. acnes” value (at 50 µg/mL) was “No (A peptide was deemed to have antimicrobial activity if C. acnes growth was inhibited by more than 50% at a given concentration)”. Moreover, under “at 100 µg/mL”, the “Antimicrobial activity > 50% against C. acnes” value was “No (A peptide was deemed to have antimicrobial activity if C. acnes growth was inhibited by more than 50% at a given concentration)”.

Take AKKALKAAAKIIKWL [AMP-19]: the “Concentration with antimicrobial activity >50%” value is recorded as 25 µg/mL and the “Category” value was “Medium AMP”. Also, the “Antimicrobial activity > 50% against C. acnes” value (at 25 µg/mL) is “Inhibit (A peptide was deemed to have antimicrobial activity if C. acnes growth was inhibited by more than 50% at a given concentration)”. For the setting “at 50 µg/mL”, the “Antimicrobial activity > 50% against C. acnes” value is “Inhibit (A peptide was deemed to have antimicrobial activity if C. acnes growth was inhibited by more than 50% at a given concentration)”. Further, the “Antimicrobial activity > 50% against C. acnes” value (at 100 µg/mL) is given as “Inhibit (A peptide was deemed to have antimicrobial activity if C. acnes growth was inhibited by more than 50% at a given concentration)”.

With ALIKKLERTLRKAI [AMP-37], the “Concentration with antimicrobial activity >50%” value is “no” and the “Category” value is given as “No AMP”. Besides, the “Antimicrobial activity > 50% against C. acnes” value (at 25 µg/mL) is given as “No (A peptide was deemed to have antimicrobial activity if C. acnes growth was inhibited by more than 50% at a given concentration)”. Moreover, the “Antimicrobial activity > 50% against C. acnes” value (at 50 µg/mL) is recorded as “No (A peptide was deemed to have antimicrobial activity if C. acnes growth was inhibited by more than 50% at a given concentration)”. Further, the “Antimicrobial activity > 50% against C. acnes” value (at 100 µg/mL) was “No (A peptide was deemed to have antimicrobial activity if C. acnes growth was inhibited by more than 50% at a given concentration)”.

Take CKAVLRWVSRLKKL [AMP-39]: the “Concentration with antimicrobial activity >50%” value was 25 µg/mL and the “Category” value is “Medium AMP”. The “Antimicrobial activity > 50% against C. acnes” value (at 25 µg/mL) was “Inhibit (A peptide was deemed to have antimicrobial activity if C. acnes growth was inhibited by more than 50% at a given concentration)”. Also, the “Antimicrobial activity > 50% against C. acnes” value (at 50 µg/mL) is on record as “Inhibit (A peptide was deemed to have antimicrobial activity if C. acnes growth was inhibited by more than 50% at a given concentration)”. Further, the “Antimicrobial activity > 50% against C. acnes” value (at 100 µg/mL) is listed as “Inhibit (A peptide was deemed to have antimicrobial activity if C. acnes growth was inhibited by more than 50% at a given concentration)”.

Regarding DALRALHHLLKRAL [AMP-42], the “Concentration with antimicrobial activity >50%” value is given as “no” and the “Category” value is on record as “No AMP”. For the same sequence, the “Antimicrobial activity > 50% against C. acnes” value (at 25 µg/mL) is on record as “No (A peptide was deemed to have antimicrobial activity if C. acnes growth was inhibited by more than 50% at a given concentration)”. The “Antimicrobial activity > 50% against C. acnes” value (at 50 µg/mL) is given as “No (A peptide was deemed to have antimicrobial activity if C. acnes growth was inhibited by more than 50% at a given concentration)”. Also, the “Antimicrobial activity > 50% against C. acnes” value (at 100 µg/mL) is “No (A peptide was deemed to have antimicrobial activity if C. acnes growth was inhibited by more than 50% at a given concentration)”.

Take FKRLQKLLFTLKQK [AMP-40]: the “Concentration with antimicrobial activity >50%” value is recorded as “no” and the “Category” value is recorded as “No AMP”. The “Antimicrobial activity > 50% against C. acnes” value (at 25 µg/mL) was “No (A peptide was deemed to have antimicrobial activity if C. acnes growth was inhibited by more than 50% at a given concentration)”. Besides, under “at 50 µg/mL”, the “Antimicrobial activity > 50% against C. acnes” value is “No (A peptide was deemed to have antimicrobial activity if C. acnes growth was inhibited by more than 50% at a given concentration)”. Further, under “at 100 µg/mL”, the “Antimicrobial activity > 50% against C. acnes” value is listed as “No (A peptide was deemed to have antimicrobial activity if C. acnes growth was inhibited by more than 50% at a given concentration)”.

Take FLGQLKNFFKKLAS [AMP-7]: the “Category” value is “Medium AMP”. Also, the “Antimicrobial activity > 50% against C. acnes” value (at 25 µg/mL) was “No (A peptide was deemed to have antimicrobial activity if C. acnes growth was inhibited by more than 50% at a given concentration)”. The “Antimicrobial activity > 50% against C. acnes” value (at 50 µg/mL) is given as “Inhibit (A peptide was deemed to have antimicrobial activity if C. acnes growth was inhibited by more than 50% at a given concentration)”. Further, the “Antimicrobial activity > 50% against C. acnes” value (at 100 µg/mL) was “Inhibit (A peptide was deemed to have antimicrobial activity if C. acnes growth was inhibited by more than 50% at a given concentration)”.

For the sequence FLKKLRTAVLKLTKG [AMP-17], the “Concentration with antimicrobial activity >50%” value is recorded as 25 µg/mL and the “Category” value is reported as “Medium AMP”. For the same sequence, under “at 25 µg/mL”, the “Antimicrobial activity > 50% against C. acnes” value was “Inhibit (A peptide was deemed to have antimicrobial activity if C. acnes growth was inhibited by more than 50% at a given concentration)”. The “Antimicrobial activity > 50% against C. acnes” value (at 50 µg/mL) is “Inhibit (A peptide was deemed to have antimicrobial activity if C. acnes growth was inhibited by more than 50% at a given concentration)”. In addition, the “Antimicrobial activity > 50% against C. acnes” value (at 100 µg/mL) was “Inhibit (A peptide was deemed to have antimicrobial activity if C. acnes growth was inhibited by more than 50% at a given concentration)”.

On to GFKRIVHRLTKWLA [AMP-11], for which the “Concentration with antimicrobial activity >50%” value was determined as 12.5 µg/mL and the “Category” value is listed as “Strong AMP”. The “Antimicrobial activity > 50% against C. acnes” value (at 25 µg/mL) was “Inhibit (A peptide was deemed to have antimicrobial activity if C. acnes growth was inhibited by more than 50% at a given concentration)”. Also, under “at 50 µg/mL”, the “Antimicrobial activity > 50% against C. acnes” value is listed as “Inhibit (A peptide was deemed to have antimicrobial activity if C. acnes growth was inhibited by more than 50% at a given concentration)”. Further, the “Antimicrobial activity > 50% against C. acnes” value (at 100 µg/mL) was “Inhibit (A peptide was deemed to have antimicrobial activity if C. acnes growth was inhibited by more than 50% at a given concentration)”.

In the case of GIGALVKFLPKLFK [AMP-41], the “Concentration with antimicrobial activity >50%” value is on record as 25 µg/mL and the “Category” value is recorded as “Medium AMP”. For the same sequence, the “Antimicrobial activity > 50% against C. acnes” value (at 25 µg/mL) is given as “Inhibit (A peptide was deemed to have antimicrobial activity if C. acnes growth was inhibited by more than 50% at a given concentration)”. Moreover, the “Antimicrobial activity > 50% against C. acnes” value (at 50 µg/mL) is “Inhibit (A peptide was deemed to have antimicrobial activity if C. acnes growth was inhibited by more than 50% at a given concentration)”. The “Antimicrobial activity > 50% against C. acnes” value (at 100 µg/mL) is given as “Inhibit (A peptide was deemed to have antimicrobial activity if C. acnes growth was inhibited by more than 50% at a given concentration)”.

GKLKKIWKNFGKIIK [AMP-20]: the “Concentration with antimicrobial activity >50%” value is 25 µg/mL and the “Category” value is reported as “Medium AMP”. Besides, the “Antimicrobial activity > 50% against C. acnes” value (at 25 µg/mL) is “Inhibit (A peptide was deemed to have antimicrobial activity if C. acnes growth was inhibited by more than 50% at a given concentration)”. Also, the “Antimicrobial activity > 50% against C. acnes” value (at 50 µg/mL) is “Inhibit (A peptide was deemed to have antimicrobial activity if C. acnes growth was inhibited by more than 50% at a given concentration)”. Besides, for the setting “at 100 µg/mL”, the “Antimicrobial activity > 50% against C. acnes” value was “Inhibit (A peptide was deemed to have antimicrobial activity if C. acnes growth was inhibited by more than 50% at a given concentration)”.

For GLTLLKKFLHAAKKF [AMP-23], the “Concentration with antimicrobial activity >50%” value was found to be 25 µg/mL and the “Category” value was “Medium AMP”. Besides, the “Antimicrobial activity > 50% against C. acnes” value (at 25 µg/mL) is listed as “Inhibit (A peptide was deemed to have antimicrobial activity if C. acnes growth was inhibited by more than 50% at a given concentration)”. Further, the “Antimicrobial activity > 50% against C. acnes” value (at 50 µg/mL) is listed as “Inhibit (A peptide was deemed to have antimicrobial activity if C. acnes growth was inhibited by more than 50% at a given concentration)”. Besides, the “Antimicrobial activity > 50% against C. acnes” value (at 100 µg/mL) was “Inhibit (A peptide was deemed to have antimicrobial activity if C. acnes growth was inhibited by more than 50% at a given concentration)”.

As to GLVSRLRRLVTPLL [AMP-4], the “Category” value is listed as “Medium AMP”. Under “at 25 µg/mL”, the “Antimicrobial activity > 50% against C. acnes” value is reported as “No (A peptide was deemed to have antimicrobial activity if C. acnes growth was inhibited by more than 50% at a given concentration)”. For the same sequence, the “Antimicrobial activity > 50% against C. acnes” value (at 50 µg/mL) is on record as “Inhibit (A peptide was deemed to have antimicrobial activity if C. acnes growth was inhibited by more than 50% at a given concentration)”. Moreover, the “Antimicrobial activity > 50% against C. acnes” value (at 100 µg/mL) is “Inhibit (A peptide was deemed to have antimicrobial activity if C. acnes growth was inhibited by more than 50% at a given concentration)”.

Consider KAIAALAKKIIKVAK [AMP-24], for which the “Concentration with antimicrobial activity >50%” value is reported as “no” and the “Category” value is reported as “No AMP”. Moreover, for the setting “at 25 µg/mL”, the “Antimicrobial activity > 50% against C. acnes” value is on record as “No (A peptide was deemed to have antimicrobial activity if C. acnes growth was inhibited by more than 50% at a given concentration)”. In addition, the “Antimicrobial activity > 50% against C. acnes” value (at 50 µg/mL) is “No (A peptide was deemed to have antimicrobial activity if C. acnes growth was inhibited by more than 50% at a given concentration)”. Further, the “Antimicrobial activity > 50% against C. acnes” value (at 100 µg/mL) is reported as “No (A peptide was deemed to have antimicrobial activity if C. acnes growth was inhibited by more than 50% at a given concentration)”.
